According to patent publication US10774084B2, “Adenine derivatives and their use as UV-photoprotective agents” (UNIVERZITA PALACKEHO V OLOMOUCI, priority 2015, dated 2020):

Key:
[1] = system: Caenorhabditis elegans strain fem-1/HT17; assay: Lifespan of Caenorhabditis elegans; type: in vivo; conditions: for average lifespan / median lifespan: 25° C.; for effect on lifespan of worms (in words): Log-Rank test, Bonferroni correction
Description: Caenorhabditis elegans is a model organism used for identification of compounds with possible beneficial effect on human aging and age-related diseases. The list of compounds that prolong the lifespan of C. elegans and are known to have beneficial effect on human health includes resveratrol, curcumin and many others. Some substances that prolong the lifespan of worms are also used in skin rejuvenating and anti-aging cosmetics, for example vitamin E, coenzyme Q10, green tea or pomegranade extracts and cytokinin kinetin. The Caenorhabditis elegans strain used in this experiment was fem-1/HT17. This strain has a heat-inducible mutation which causes all worms to develop into females when cultivated in 25° C. (13). That prevents further reproduction and contamination of the experiment with progeny. Compounds dissolved in DMSO (100 mM stock solutions) were added into fresh NGM (nematode growth medium) to the final concentration of 10 and 50 or 100 μM and pipetted onto a Petri dish. Medium with DMSO vehiculum alone and non-treated medium were used as negative control. After solidification of NGM, the plates were seeded with 100 μl of 20× concentrated overnight suspension of Escherichia coli strain OP50 in LB medium. Bacteria on plates were allowed to grow overnight in 37° C. Age synchronized young adults (obtained by hypochlorite treatment) were then pipetted onto plates. Plates were kept in 25° C. In regular time intervals (1-3 days), the plates were scanned on an Epson perfection V700 photo flatbed scanner. The number of surviving worms was established by image analysis based on comparison of several subsequent photographs and identification of moving objects. Pictures were analyzed in Fiji similarly as described here. Scripts from the original publication were slightly modified and the parameters adjusted to better suit our photo resolution and lighting. Three subsequent pictures of a plate were compared with each other. The average of the 3 resulting numbers was used to reduce the possibility of error. The overall results were then analyzed in programs OASIS and ED50v10. The statistical significance was evaluated by Log-Rank test and P-values were corrected by Bonferroni correction.

[2] = system: skin fibroblasts BJ and keratinocytes HaCaT; assay: MTT in vitro cytotoxicity test for skin cells; type: cell-based; conditions: Homo sapiens; 72 hour treatment; table does not say which cell line (BJ, HaCaT)
Protocol: MTT assay is a standard test of toxicity based on photometric measurement of the ability of metabolically active cells to reduce MTT (3-(4,5-dimethylthiazol-2-yl)-2,5-diphenyltetrazolium bromide). Using the assay, the effects of 72 hour treatments with several concentrations of the compounds (sixfold dilution, maximal concentration=50 microM) on viability of skin fibroblasts BJ and keratinocytes HaCaT were evaluated. About 5,000 cells were seeded per well of a 96-well plate 24 hours before the treatment. DMSO vehiculum was used as a negative control. After 72 hour treatment, new medium with MTT (Sigma, M2128) was added to a final concentration of 0.5 mg/ml. After 3 hours, medium was removed and resulting formazan in the cells was dissolved in DMSO. The absorbance was measured at 570 nm (640 nm reference wavelength). The IC50 values were calculated from the dose-response curves. 6-furfurylaminopurine riboside was used as positive controls.

[3] = system: HaCaT; assay: In vitro UVA/UVB photoprotection test on HaCaT; type: cell-based, human
Protocol: Spontaneously Immortalized Aneuploid Human Keratinocyte Cell Line (HaCaT) was bought from CLS (Eppeheim, Germany) and used as an in vitro model. For all experiments the keratinocytes were seeded onto 96-well plates at a density of 1.6×10^5 cells/ml (0.2 ml per well) of growth medium (DMEM supplemented with fetal bovine serum (10%), penicillin ([…]) and streptomycin (100 U/ml)).
Test substances included compounds number 3, 9, 15 and 20. Compounds were dissolved in DMSO and then diluted in serum free medium (DMEM supplemented penicillin ([…]) and streptomycin (100 U/ml)). After 24 h incubation was growth medium changed to serum free medium containing test compounds. The final applied concentration range was 3.9-31.25 μmol/l. As a control, serum free medium supplemented with appropriate concentration of DMSO (0.5%, v/v) was used. Rosmarinic acid was used as positive control. After 60 minutes incubation with test compounds medium was discarded, cells were washed two-times with PBS and PBS supplemented with glucose (1 mg/ml) was applied. To study UVA photoprotection, a plate was exposed to a cytotoxic dose of UVA radiation (10 J/cm2) using a solar simulator SOL 500 (Dr. Hoenle Technology, Germany) equipped with a H1 filter transmitting wavelengths of 320-400 nm. To study UVB photoprotection, a plate was exposed to a cytotoxic dose of UVB radiation (150 mJ/cm2) using the solar simulator equipped with a H2 filter transmitting wavelengths of 295-320 nm. Intensity of UVA or UVB radiation was evaluated before each irradiation by UVA- or UVB-meter. Control (non-irradiated) plates were for the period of irradiation incubated in dark. After UVA or UVB exposure PBS with glucose was discarded and serum free medium was applied. After 24 hours (37° C., 5% CO2) cell damage was evaluated by neutral red (NR) incorporation into viable cells. Medium was discarded and NR solution (0.03% w/v, PBS) was applied. After 60 minutes NR solution was discarded, cells were fixed with a mixture of formaldehyde (0.5%, v/v) and CaCl2 (1%, m/v) in ratio 1:1 and then NR was dissolved in methanol (50%, v/v) with acetic acid (1%, v/v).
After 5 minutes of intensive shaking absorbance was measured at 540 nm. Experiments were performed in four independent repetitions with use of […] to minimize individual sensitivity of donor cells. Photoprotective effect was evaluated by comparison of experimental data (absorbance) of test compounds with a positive control and a negative control (according to the following equation: […]
As . . . absorbance of sample (cells pre-incubated with test compounds in serum free medium and irradiated)
Anc . . . absorbance of negative control (cells pre-incubated with s DMSO in serum free medium and non-irradiated=incubated in dark)
Apc . . . absorbance of positive control (cells pre-incubated with s DMSO in serum free medium and irradiated)

[4] = Table 17: UVA-induced damage (10 J/cm2), 3.9 μmol/l
[5] = Table 17: UVA-induced damage (10 J/cm2), 7.8 μmol/l
[6] = Table 17: UVA-induced damage (10 J/cm2), 15.6 μmol/l
[7] = Table 17: UVA-induced damage (10 J/cm2), 31.3 μmol/l
[8] = Table 18: titled UVA-induced damage, 3.9 μmol/l
[9] = Table 18: titled UVA-induced damage, 7.8 μmol/l
[10] = Table 18: titled UVA-induced damage, 15.6 μmol/l
[11] = Table 18: titled UVA-induced damage, 31.3 μmol/l

Structure (SMILES)	average lifespan ([1]; 10 μM in NGM)	median lifespan ([1]; 10 μM in NGM)	average lifespan ([1]; 100 μM in NGM)	median lifespan ([1]; 100 μM in NGM)	effect on lifespan of worms (in words) [1]	IC50 [2]	Protection (%) [3, 4]	Protection (%) [3, 5]	Protection (%) [3, 6]	Protection (%) [3, 7]	Protection (%) [3, 8]	Protection (%) [3, 9]	Protection (%) [3, 10]	Protection (%) [3, 11]
c1nc(NCC2CCCO2)c2ncn(C3CCCO3)c2n1 (stereo not shown) [Compound 1, 6-(tetrahydrofuran-2-ylmethylamino)-9-(tetrahydrofuran-2-yl)purine]	11.9 days	10.3 days	12.6 days	10.2 days	significantly prolonged	> 100 µM	–	–	–	–	–	–	–	–
OCc1ccc(CNc2ncnc3c2ncn3C2CCCO2)o1 (stereo not shown) [Compound 3, 6-(5-hydroxymethylfuran-2-ylmethylamino)-9-(tetrahydrofuran-2-yl)purine]	–	–	–	–	–	–	26.8%	34.3%	46.0%	50.7%	27.3%	46.5%	47.8%	53.8%
c1csc(CNc2ncnc3c2ncn3C2CCCO2)c1 (stereo not shown) [Compound 9, 6-(thiophen-2-ylmethylamino)-9-(tetrahydrofuran-2-yl)purine]	–	–	–	–	–	> 100 µM	72.1%	70.3%	66.8%	61.4%	48.8%	56%	55.7%	56.5%
Clc1nc(NCc2ccco2)c2ncn(C3CCCO3)c2n1 (stereo not shown) [Compound 15, 2-chloro-6-furfurylamino-9-(tetrahydrofuran-2-yl)purine]	11.3 days	9.4 days	13.8 days	10.3 days	–	> 100 µM	41.2%	56.9%	55.3%	76.7%	12.3%	35.3%	37.8%	51.3%
Clc1nc(NCC2CCCO2)c2ncn(C3CCCO3)c2n1 (stereo not shown) [Compound 20, 2-chloro-6-(tetrahydrofuran-2-ylmethylamino)-9-(tetrahydrofuran-2-yl)purine]	12.4 days	11.2 days	11.2 days	10.2 days	significantly prolonged	–	12.3%	25.0%	28.9%	31.6%	45.7%	66.2%	64%	75.2%
